Laboratory results taken from ChEMBL document CHEMBL4130433, “Acridone-pyrimidine hybrids- design, synthesis, cytotoxicity studies in resistant and sensitive cancer cells and molecular docking studies” (Eur J Med Chem, 2017).

How the values were obtained:
Rattus norvegicus [1] = experiment: Toxicity in overnight fasted albino Wistar rat assessed as body weight at 300 mg/kg, po administered as single dose followed by fasting for 3 hrs measured on day 3 post dose (reference value: 166 +/- 10 g); type: organism-based; settings: in vivo
2008 [2] = experiment: Antiproliferative activity against resistant human 2008 cells clone 4 harboring MRP1 after 72 hrs by MTT assay; type: functional, cell-based; settings: Homo sapiens, 2008, 72 h
Rattus norvegicus [3] = experiment: Toxicity in overnight fasted albino Wistar rat assessed as body weight at 2000 mg/kg, po administered as single dose followed by fasting for 3 hrs measured on day 5 post dose (reference value: 172 +/- 14 g); type: organism-based; settings: in vivo
Rattus norvegicus [4] = experiment: Toxicity in overnight fasted albino Wistar rat assessed as body weight at 5000 mg/kg, po administered as single dose followed by fasting for 3 hrs measured on day 10 post dose (reference value: 182 +/- 15 g); type: organism-based; settings: in vivo
Rattus norvegicus [5] = experiment: Toxicity in overnight fasted albino Wistar rat assessed as body weight at 5000 mg/kg, po administered as single dose followed by fasting for 3 hrs measured on day 13 post dose (reference value: 188 +/- 16 g); type: organism-based; settings: in vivo
Rattus norvegicus [6] = experiment: Toxicity in overnight fasted albino Wistar rat assessed as body weight at 5000 mg/kg, po administered as single dose followed by fasting for 3 hrs measured on day 6 post dose (reference value: 173 +/- 12 g); type: organism-based; settings: in vivo
Rattus norvegicus [7] = experiment: Toxicity in overnight fasted albino Wistar rat assessed as body weight at 5000 mg/kg, po administered as single dose followed by fasting for 3 hrs measured on day 2 post dose (reference value: 165 +/- 12 g); type: organism-based; settings: in vivo
Rattus norvegicus [8] = experiment: Toxicity in overnight fasted albino Wistar rat assessed as body weight at 300 mg/kg, po administered as single dose followed by fasting for 3 hrs measured on day 1 post dose (reference value: 162 +/- 8 g); type: organism-based; settings: in vivo
Rattus norvegicus [9] = experiment: Toxicity in overnight fasted albino Wistar rat assessed as body weight at 5000 mg/kg, po administered as single dose followed by fasting for 3 hrs measured on day 8 post dose (reference value: 177 +/- 8 g); type: organism-based; settings: in vivo
Rattus norvegicus [10] = experiment: Toxicity in overnight fasted albino Wistar rat assessed as body weight at 2000 mg/kg, po administered as single dose followed by fasting for 3 hrs measured on day 14 post dose (reference value: 191 +/- 18 g); type: organism-based; settings: in vivo
Rattus norvegicus [11] = experiment: Toxicity in overnight fasted albino Wistar rat assessed as body weight at 300 mg/kg, po administered as single dose followed by fasting for 3 hrs measured on day 14 post dose (reference value: 191 +/- 18 g); type: organism-based; settings: in vivo
SW1573 [12] = experiment: Antiproliferative activity against resistant human SW1573 2R 160 cells harboring P-gp after 72 hrs by MTT assay; type: functional, cell-based; settings: SW1573, 72 h
HeLa = experiment: Antiproliferative activity against human HeLa cells after 72 hrs by MTT assay; type: functional, cell-based
Rattus norvegicus [13] = experiment: Toxicity in overnight fasted albino Wistar rat assessed as body weight at 5000 mg/kg, po administered as single dose followed by fasting for 3 hrs measured on day 4 post dose (reference value: 169 +/- 5 g); type: organism-based; settings: in vivo
Rattus norvegicus [14] = experiment: Toxicity in overnight fasted albino Wistar rat assessed as body weight at 5000 mg/kg, po administered as single dose followed by fasting for 3 hrs measured on day 3 post dose (reference value: 166 +/- 10 g); type: organism-based; settings: in vivo
[15] = target: RAC-alpha serine/threonine-protein kinase (Homo sapiens, UniProt P31749); experiment: Inhibition of PH domain lacking AKT1 (unknown origin) using Tamara-labeled GRPRTSSFAEG peptide as substrate after 90 mins by fluorescence polarization IMAP assay
Rattus norvegicus [16] = experiment: Toxicity in overnight fasted albino Wistar rat assessed as body weight at 2000 mg/kg, po administered as single dose followed by fasting for 3 hrs measured on day 6 post dose (reference value: 173 +/- 12 g); type: organism-based; settings: in vivo
[17] = Antiproliferative activity against human MCF7/DX cells after 72 hrs by MTT assay; type: functional, cell-based
Rattus norvegicus [18] = experiment: Toxicity in overnight fasted albino Wistar rat assessed as body weight at 300 mg/kg, po administered as single dose followed by fasting for 3 hrs measured on day 9 post dose (reference value: 180 +/- 12 g); type: organism-based; settings: in vivo
Rattus norvegicus [19] = experiment: Toxicity in overnight fasted albino Wistar rat assessed as body weight at 5000 mg/kg, po administered as single dose followed by fasting for 3 hrs measured on day 11 post dose (reference value: 185 +/- 8 g); type: organism-based; settings: in vivo
Rattus norvegicus [20] = experiment: Toxicity in overnight fasted albino Wistar rat assessed as body weight at 300 mg/kg, po administered as single dose followed by fasting for 3 hrs measured on day 11 post dose (reference value: 185 +/- 8 g); type: organism-based; settings: in vivo
Rattus norvegicus [21] = experiment: Toxicity in overnight fasted albino Wistar rat assessed as body weight at 2000 mg/kg, po administered as single dose followed by fasting for 3 hrs measured on day 4 post dose (reference value: 169 +/- 5 g); type: organism-based; settings: in vivo
Rattus norvegicus [22] = experiment: Toxicity in overnight fasted albino Wistar rat assessed as body weight at 2000 mg/kg, po administered as single dose followed by fasting for 3 hrs measured on day 1 post dose (reference value: 162 +/- 8 g); type: organism-based; settings: in vivo
MCF7 = experiment: Antiproliferative activity against human MCF7 cells after 72 hrs by MTT assay; type: functional, cell-based; settings: MCF7, 72 h
Rattus norvegicus [23] = experiment: Toxicity in overnight fasted albino Wistar rat assessed as body weight at 300 mg/kg, po administered as single dose followed by fasting for 3 hrs measured on day 12 post dose (reference value: 186 +/- 13 g); type: organism-based; settings: in vivo
SW1573 [24] = experiment: Antiproliferative activity against resistant human SW1573 2R 120 cells harboring MRP1 after 72 hrs by MTT assay; type: functional, cell-based; settings: SW1573, 72 h
Rattus norvegicus [25] = experiment: Toxicity in overnight fasted albino Wistar rat assessed as body weight at 300 mg/kg, po administered as single dose followed by fasting for 3 hrs measured on day 8 post dose (reference value: 177 +/- 8 g); type: organism-based; settings: in vivo
Rattus norvegicus [26] = experiment: Toxicity in overnight fasted albino Wistar rat assessed as body weight at 5000 mg/kg, po administered as single dose followed by fasting for 3 hrs measured on day 9 post dose (reference value: 180 +/- 12 g); type: organism-based; settings: in vivo
Rattus norvegicus [27] = experiment: Toxicity in overnight fasted albino Wistar rat assessed as body weight at 5000 mg/kg, po administered as single dose followed by fasting for 3 hrs measured on day 1 post dose (reference value: 162 +/- 8 g); type: organism-based; settings: in vivo
SW1573 [28] = experiment: Antiproliferative activity against human SW1573 cells after 72 hrs by MTT assay; type: functional, cell-based; settings: SW1573, 72 h
2008 [29] = experiment: Antiproliferative activity against resistant human 2008 cells clone 6 harboring MRP1 after 72 hrs by MTT assay; type: functional, cell-based; settings: Homo sapiens, 2008, 72 h
Rattus norvegicus [30] = experiment: Toxicity in overnight fasted albino Wistar rat assessed as body weight at 300 mg/kg, po administered as single dose followed by fasting for 3 hrs measured on day 4 post dose (reference value: 169 +/- 5 g); type: organism-based; settings: in vivo
Rattus norvegicus [31] = experiment: Toxicity in overnight fasted albino Wistar rat assessed as body weight at 2000 mg/kg, po administered as single dose followed by fasting for 3 hrs measured on day 7 post dose (reference value: 175 +/- 10 g); type: organism-based; settings: in vivo
MDA-MB-231 = experiment: Antiproliferative activity against human MDA-MB-231 cells after 72 hrs by MTT assay; type: functional, cell-based; settings: MDA-MB-231, 72 h

RAC-alpha serine/threonine-protein kinase, sequence (P31749 whole entry, the tested form may be a part): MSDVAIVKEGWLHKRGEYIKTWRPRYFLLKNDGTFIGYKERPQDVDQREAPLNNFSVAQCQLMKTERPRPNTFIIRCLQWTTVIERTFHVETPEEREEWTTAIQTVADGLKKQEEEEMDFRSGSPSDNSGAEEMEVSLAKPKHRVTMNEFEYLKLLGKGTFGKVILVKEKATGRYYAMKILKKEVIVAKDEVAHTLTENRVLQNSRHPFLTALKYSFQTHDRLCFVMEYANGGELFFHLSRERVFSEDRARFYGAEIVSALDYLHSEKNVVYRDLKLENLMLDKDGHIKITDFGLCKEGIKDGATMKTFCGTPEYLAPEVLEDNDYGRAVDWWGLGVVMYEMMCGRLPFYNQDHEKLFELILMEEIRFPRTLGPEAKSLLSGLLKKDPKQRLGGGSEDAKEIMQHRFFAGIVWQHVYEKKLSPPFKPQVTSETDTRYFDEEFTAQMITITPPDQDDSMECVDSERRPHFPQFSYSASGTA

COC(=O)c1c(C)nc(NNC(=O)c2cccc3c(=O)c4ccccc4[nH]c23)nc1-c1ccc(OC)c(OC)c1
Activity (Rattus norvegicus [1]): 185 g | IC50 2008 [2]: 42 µM | Activity (Rattus norvegicus [3]): 190 g | Activity (Rattus norvegicus [4]): 215 g | Activity (Rattus norvegicus [5]): 224 g | Activity (Rattus norvegicus [6]): 202 g | Activity (Rattus norvegicus [7]): 189 g | Activity (Rattus norvegicus [8]): 182 g | Activity (Rattus norvegicus [9]): 208 g | Activity (Rattus norvegicus [10]): 213 g | Activity (Rattus norvegicus [11]): 208 g | IC50 (SW1573 [12]): 12 µM | IC50 (HeLa): 63.5 µM | Activity (Rattus norvegicus [13]): 196 g | Activity (Rattus norvegicus [14]): 192 g | IC50 [15]: 0.311 µM | Activity (Rattus norvegicus [16]): 194 g | IC50 [17]: 78 µM | Activity (Rattus norvegicus [18]): 193 g | Activity (Rattus norvegicus [19]): 219 g | Activity (Rattus norvegicus [20]): 196 g | Activity (Rattus norvegicus [21]): 187 g | Activity (Rattus norvegicus [22]): 183 g | IC50 (MCF7): 65 µM | Activity (Rattus norvegicus [23]): 199 g | IC50 (SW1573 [24]): > 100 µM | Activity (Rattus norvegicus [25]): 192 g | Activity (Rattus norvegicus [26]): 212 g | Activity (Rattus norvegicus [27]): 188 g | IC50 (SW1573 [28]): 4 µM | IC50 2008 [29]: 65 µM | Activity (Rattus norvegicus [30]): 186 g | Activity (Rattus norvegicus [31]): 195 g | IC50 (MDA-MB-231): 62.9 µM
